Series [1] in a line: CINJ TPA Phase 1 study, relapsed/refractory malignancies: clinical response and toxicity. Type of series: in vivo, human. From the text: 12-O-tetradecanoylphorbol-13-acetate (TPA), an activator of protein kinase C, is being developed as a therapeutic agent for patients with acute myelogenous leukemia (AML) because of its profound effects on intracellular signaling pathways, it's capacity to induce differentiation and/or apoptosis in cell lines, and preliminary clinical data from China indicating effectiveness in myeloid malignancies (Han Z T, Zhu X X, Yang R Y, Sun J Z, Tian G F, Liu X J et al. Effect of intravenous infusions of 12-O-tetradecanoylphorbol-13-acetate (TPA) in patients with myelocytic leukemia: preliminary studies on therapeutic efficacy and toxicity. Proc Natl Acad Sci USA 1998; 95(9):5357-5361). A recently completed Investigator-initiated, Phase I study at The Cancer Institute of New Jersey/Robert Wood Johnson Medical School/UMDNJ represented the only FDA-approved study to administer TPA to patients in the United States and provided a unique opportunity to study the in vivo effects of TPA in patients with relapsed/refractory malignancies for which no standard therapies exist. Thus far clinical evaluation of TPA as a single agent has documented clinical safety when administered on days 1-5 and 8-12.
The initial CINJ TPA Phase 1 study enrolled 35 patients [23 with relapsed/refractory AML, 2 with other myeloid malignancies (CML-blast crisis, myelodysplasia with excess blasts), 3 with Hodgkin's Disease, 3 with non-Hodgkin's lymphoma and 4 with solid tumors]. The majority of patients had relapsed/refractory AML. Our clinical results include one AML patient with stable disease for >5 months, who received 8 TPA infusions. In a second AML patient, a pronounced (5-fold) decline in the number of circulating blasts was seen following TPA administration. This decline in leukemic blasts persisted for 4 weeks; the patient eventually died from a fungal infection.

Series [2] concerns ERK phosphorylation. The series is described as follows: Ex vivo ERK phosphorylation in clinical AML samples (Western analysis). In kind it is cell-based, human.
The conditions of series [3]: 5 patients, 0.125 mg/m^2, cited from earlier work.
The subject of series [4] is primary AML cells. The series is described as follows: Ex vivo cytotoxicity on primary AML cells (cell viability and apoptosis assays).
For series [5] the following is noted: AML patients, 48 h treatment with induction chemotherapy.
Text: Clinical trial. […] The study was an open-label trial. […] Inclusion criteria included non-pregnant patients with an Eastern Cooperative Oncology Group performance status of 0 to 3, a bilirubin level more than twice the upper limits of normal, aspartate aminotransferase/alanine aminotransferase level more than thrice the upper limits of normal, and creatinine levels more than 1.5 times the upper limits of normal. Patients with current or recent gastrointestinal bleeding were excluded. […] Dexamethasone was administered at a dose of 10 mg p.o. every 6 h beginning at hour 0 and continuing until hour 48. […] Induction chemotherapy consisted of 3 days of idarubicin in combination with a 7-day continuous infusion of cytarabine. Some patients over the age of 60 received a reduced dose of idarubicin and the addition of etoposide (32).
The subject of series [6] is primary AML cells.

Where “and” joins values, the source holds several entries; their conditions need not be identical. Equal values may be shown once. Entries after “also recorded” stand apart in the source; their conditions may differ. Read-outs that look alike come from different tables or passages of the source.

In the case of `CCCCCCCCCCCCCC(=O)O[C@@H]1[C@@H](C)[C@@]2(O)[C@@H](C=C(CO)C[C@]3(O)C(=O)C(C)=C[C@@H]23)[C@@H]2C(C)(C)[C@]12OC(C)=O` [TPA, 12-O-tetradecanoylphorbol-13-acetate], the “DLT's reported” value in series [1] (CINJ TPA study) was “grade 3 dyspnea, grade 3 hypoxia and a grade 3 episode of hypotension”. Moreover, in series [1] (last cohort, 0.188 mg/m^2 d1-5, 8-12), the “Patients with grade III non-hematologic dose limiting toxicities (DLT)” value is on record as 2 out of 3. Further, the “Maximum tolerated TPA dose as a single agent” value in series [1] (on d1-5 and 8-12) was found to be 0.125 mg/m^2/d. Further, the “Duration of stable disease” value in series [1] (one AML patient, 8 TPA infusions) is recorded as over 5 months. Moreover, in series [1] (patient with relapsed and refractory Hodgkin's disease), the “Clinical response of chest wall mass” value is listed as “partial remission”. The “Persistence of decline in leukemic blasts” value in series [1] (second AML patient) is 4 weeks. For the same molecule, the “Decline in the number of circulating blasts” value in series [1] (second AML patient, following TPA administration) is on record as 5 fold. Besides, in series [2] (all primary cultures analyzed by Western analysis, by 1 hour in culture), the ERK phosphorylation result is on record as “strongly induced”. In addition, the “TPA concentration (as low as) giving detectable increases in ERK phosphorylation” value in series [2] (ex vivo exposure of clinical AML samples) stood at 0.032 nM. Moreover, the “TPA level in blood, average” value in series [3] (immediately post-infusion) was 1.75 ng/ml blood and 2.8 nM; in series [3] (one hour post infusion), 0.93 ng/ml blood and 1.5 nM. Also, in series [4] (clinical AML samples ex vivo, 32 nM vs 3.2 nM, unpublished observations), the “Cytotoxic effects by TPA concentration” value is on record as 32 nM is more cytotoxic than 3.2 nM. Besides, in series [4] (small panel of clinical AML samples, subset of AML cases), the “Cytotoxic effects, cell viability and apoptosis assays” value is listed as “direct cytotoxic effects”.
As to `C[C@@H]1C[C@H]2[C@@H]3CCC4=CC(=O)C=C[C@]4(C)[C@@]3(F)[C@@H](O)C[C@]2(C)[C@@]1(O)C(=O)CO` [dexamethasone], the “Unusual untoward effects attributable to the agent” value in series [5] is “did not detect any unusual untoward effects; also recorded: did not, detect any unusual untoward elects”. For the same molecule, in series [6], the “Effect on TPA cytotoxicity” value is listed as “enhance TPA cytotoxicity”.
